Measured values published in US5455267A, “Chromone derivative, and aldose reductase inhibitor comprising said compound as active component” (Tsumura & Co., priority 1990, dated 1995).

Biological target: T1, aldose reductase (Rattus norvegicus, UniProt P07943)
T1 construct: The crystalline lenses were homogenized in 135 mM sodium-potassium-phosphate buffer (pH 7.0) and centrifuged; from tissue; host or cells: lens of 6 week-old Wistar rats (30,000 rpm supernatant of homogenate)
Assay: Determination of Aldose Reductase Activity (In Vitro)
Type: biochemical, rat (Wistar)
Details: Table 3; for inhibition at 10 µM: at the concentration of 10 μM, read-out: Inhibition rate %; for IC50: rat lens aldose reductase, 20 mM glucose, 30 min, 30° C, pH 7.0, read-out: 50% Inhibition Conc. [IC50 (M)]
Description: 6 week-old Wistar rats were sacrificed under ether anesthesia, and immediately lenses were removed and stored at -20° C. The crystalline lenses were homogenized in 135 mM sodium-potassium-phosphate buffer (pH 7.0) and centrifuged for 30 min. at 30,000 rpm. The supernatant was used as an aldose-reductase solution. The above procedure was carried out at 4° C. The enzyme solution was stored at -20° C.
The measurement of aldose reductase activity was conducted according to the method as described by Duffane et al. (Biochemical Medicine, 32:99-105 (1984)).
That is, 100 gl of the above enzyme solution and 100 gl of a solution prepared by dissolving a compound obtained in the following example to a final concentration of from 1.0×10^-5 to 4.0×10^-7 M in dimethylsulfoxide (DMSO) were added to 800 gl of 135 mM sodium-potassium-phosphate buffer (pH 7.0) containing 100 mM lithium sulfate, 0.03 mM NADPH (reduced form of nicotinamide adeninc dinucleotide phosphate) and 20 mM glucose as a substrate. The sample was allowed to react for 30 min. at 30° C. The reaction was stopped by addition of 0.3 ml of 0.5N hydrochloric acid. The NADP (oxided form of nicotinamide adenine dinucleotide) formed during the above reaction was converted into a fluorescent substance by addition of 1 ml of 6N sodium hydroxide containing 10 mM imidazole. 30 min. thereafter, the sample was measured for fluorescence intensity at the fluorescence wavelength of 460 nm (excitation wavelength: 360 nm) using a fluorescence photometer F-4000 (manufactured by Hitachi, Ltd.) at room temperature. A sample containing DMSO in place of the present compound was used as a control, and its fluorescence intensity was determined in the same manner as above.
Aldose reductase is an enzyme to convert DL-glyceraldehyde or glucose into polyol in the presence of NADPH as a coenzyme. As this reaction proceeds, NADPH is converted into NADP, so that the smaller amount of NADP formed indicates higher inhibition of aldose reductase. […]

SMILES	inhibition at 10 µM [%]	IC50 [M]
COc1c(OC(C)=O)cc2oc(Sc3ccc(O)cc3)cc(=O)c2c1OC(C)=O [Compound 1 obtained in Example 28, 5,7-diacetoxy-2-(4-hydroxyphenylthio)-6-methoxychromone]	95.4	1.7e-07
COc1c(OC(C)C)cc2oc([S+]([O-])c3ccc(O)cc3)cc(=O)c2c1OC (stereo not shown) [Compound 1 obtained in Example 34, 5,6-dimethoxy-2-(4-hydroxyphenylsulfinyl)-7-isopropoxychromone]	98	4.6e-07
COc1c(OC(C)=O)cc2oc(Sc3ccc(O)cc3)cc(=O)c2c1O [Compound 2 obtained in Example 28, 7-acetoxy-5-hydroxy-2-(4-hydroxyphenylthio)-6-methoxychromone]	95.4	3e-07
COc1c(OC(C)C)cc2oc(S(=O)(=O)c3ccc(O)cc3)cc(=O)c2c1OC [Compound 2 obtained in Example 34, 5,6-dimethoxy-2-(4-hydroxyphenylsulfonyl)-7-isopropoxychromone]	96.6	1e-06
COc1cc(O)c2c(=O)cc(Nc3ccc(O)cc3)oc2c1 [Compound 2 obtained in Example 77, 5-hydroxy-2-(4-hydroxyanilino)-7-methoxychromone]	40	–
COc1cc2oc(Sc3ccc(O)cc3)cc(=O)c2c(O)c1OC [Example 2, 5-hydroxy-2-(4-hydroxyphenylthio)-6,7-dimethoxychromone]	87.1	1.1e-07
CCOc1cc2oc(Sc3ccc(O)cc3)cc(=O)c2c(OCC)c1OC [Example 11, 5,7-diethoxy-2-(4-hydroxyphenylthio)-6-methoxychromone]	98.5	4e-08
CCCOc1cc2oc(Sc3ccc(O)cc3)cc(=O)c2c(OCCC)c1OC [Example 12, 5,7-dipropoxy-2-(4-hydroxyphenylthio)-6-methoxychromone]	93	1.5e-07
COc1c(OC(C)C)cc2oc(Sc3ccc(O)cc3)cc(=O)c2c1OC(C)C [Example 13, 5,7-diisopropoxy-2-(4-hydroxyphenylthio)-6-methoxychromone]	93.7	1.8e-08
CCCCOc1cc2oc(Sc3ccc(O)cc3)cc(=O)c2c(OCCCC)c1OC [Example 14, 5,7-dibutoxy-2-(4-hydroxyphenylthio)-6-methoxychromone]	86.8	1.9e-07
CCC(C)Oc1cc2oc(Sc3ccc(O)cc3)cc(=O)c2c(OC(C)CC)c1OC (stereo not shown) [Example 15, 5,7-di-s-butoxy-2-(4-hydroxyphenylthio)-6-methoxychromone]	98.4	3.8e-08
COc1c(OCC(C)C)cc2oc(Sc3ccc(O)cc3)cc(=O)c2c1OC(C)C [Example 17, 2-(4-hydroxyphenylthio)-7-isobutoxy-5-isopropoxy-6-methoxychromone]	95.1	1.3e-07
COc1c(OC(C)C)cc2oc(Sc3ccc(O)c(Cl)c3)cc(=O)c2c1OC(C)C [Example 19, 2-(3-chloro-4-hydroxyphenylthio)-5,7-diisopropoxy-6-methoxychromone]	69.8	4e-06
COc1c(OC(C)C)cc2oc(Sc3ccc(O)cc3)cc(=O)c2c1O [Example 26, 5-hydroxy-2-(4-hydroxyphenylthio)-7-isopropoxy-6-methoxychromone]	98.1	6.5e-08
CCOc1c(OC)c(OCC=C(C)C)cc2oc(Sc3ccc(O)cc3)cc(=O)c12 [Example 31, 5-ethoxy-2-(4-hydroxyphenylthio)-6-methoxy-7-prenyloxychromone]	100	2.3e-07
COc1cc(OC)c2c(=O)cc(Sc3ccccc3)oc2c1 [Example 41, 5,7-dimethoxy-2-phenylthiochromone]	52.4	–
COc1cc(OC)c2c(=O)cc(Sc3ccccc3Cl)oc2c1 [Example 42, 5,7-dimethoxy-2-(2-chlorophenylthio)chromone]	47.7	–
COc1cc(OC)c2c(=O)cc(Sc3cccc(Cl)c3)oc2c1 [Example 43, 5,7-dimethoxy-2-(3-chlorophenylthio)chromone]	44	–
COc1cc(OC)c2c(=O)cc(Sc3ccccc3OC)oc2c1 [Example 46, 5,7-dimethoxy-2-(2-methoxyphenylthio)chromone]	28.4	–

SMILES	inhibition at 10 µM [%]	IC50 [M]
COc1cccc(Sc2cc(=O)c3c(OC)cc(OC)cc3o2)c1 [Example 47, 5,7-dimethoxy-2-(3-methoxyphenylthio)chromone]	36.5	–
COc1cc(OC)c2c(=O)cc(Sc3ccccc3N)oc2c1 [Example 49, 5,7-dimethoxy-2-(2-aminophenylthio)chromone]	48.2	–
COc1cc(OC)c2c(=O)cc(Sc3ccccc3C)oc2c1 [Example 52, 5,7-dimethoxy-2-(2-methylphenylthio)chromone]	31.7	–
COc1cc(OC)c2c(=O)cc(Sc3cccc(C)c3)oc2c1 [Example 53, 5,7-dimethoxy-2-(3-methylphenylthio)chromone]	22.8	–
COc1cc(OC)c2c(=O)cc(Sc3ccccc3O)oc2c1 [Example 56, 2-(2-hydroxyphenylthio)-5,7-dimethoxychromone]	35.9	–
COc1cc(OC)c2c(=O)cc(Sc3cccc(O)c3)oc2c1 [Example 57, 2-(3-hydroxyphenylthio)-5,7-dimethoxychromone]	50.5	–
COc1cc(OC)c2c(=O)cc(Sc3ccccn3)oc2c1 [Example 58, 5,7-dimethoxy-2-(2-pyridylthio)chromone]	37.4	–
COc1cc(OC)c2c(=O)cc(Sc3ccncc3)oc2c1 [Example 59, 5,7-dimethoxy-2-(4-pyridylthio)chromone]	37.1	–
COc1cc(OC)c2c(=O)cc(Sc3nnc(N)s3)oc2c1 [Example 63, 2-(2-amino-5-thiadiazolylthio)-5,7-dimethoxychromone]	31.1	–
COc1cc(OC)c2c(=O)cc(Sc3ccc(C(=O)O)cc3)oc2c1 [Example 64, 4-(5,7-dimethoxychromonyl-2-thio)benzoic acid]	52.9	–
COC(=O)c1ccc(Sc2cc(=O)c3c(OC)cc(OC)cc3o2)cc1 [Example 65, methyl 4-(5,7-dimethoxychromonyl-2-thio)benzoate]	23.1	–
COc1cc(OC)c2c(=O)cc(Sc3ccc(CO)cc3)oc2c1 [Example 66, 5,7-dimethoxy-2-(4-hydroxymethyl-phenylthio)chromone]	31.5	–
CC(C)Oc1cc(OC(C)C)c2c(=O)cc(Sc3ccc(O)cc3)oc2c1 [Example 69, 5,7-diisopropoxy-2-(4-hydroxyphenylthio)chromone]	97.7	–
COc1cc(OC)c2c(=O)cc(Oc3ccc(O)cc3)oc2c1 [Example 70, 2-(4-hydroxyphenoxy)-5,7-dimethoxychromone]	85.5	1e-06
COc1cc(OC)c2c(=O)cc(Sc3ccc(O)cc3)oc2c1 [Example 71, 2-(4-hydroxyphenylthio)-5,7-dimethoxychromone]	88.7	1e-07
COc1cc(O)c2c(=O)cc(Sc3ccc(O)cc3)oc2c1 [Example 72, 5-hydroxy-2-(4-hydroxyphenylthio)-7-methoxychromone]	84	1e-07
COc1ccc(CSc2cc(=O)c3c(OC)cc(OC)cc3o2)cc1 [Example 73, 5,7-dimethoxy-2-(4-methoxybenzylthio)chromone]	16.4	–
COc1cc(O)c2c(=O)cc(SCc3ccc(O)cc3)oc2c1 [Example 74, 5-hydroxy-2-(4-hydroxybenzylthio)-7-methoxychromone]	52.1	–
O=c1cc(SCc2ccc(O)cc2)oc2cc(O)cc(O)c12 [Example 75, 5,7-dihydroxy-2-(4-hydroxybenzylthio)chromone]	43.5	–
